Each block holds one compound with its values, some of them ahead of it. Activity calls are given as the source filed them.
Experiments:
Cannabinoid receptor 1 [1] = molecular target: T1, Cannabinoid receptor 1 (Homo sapiens, UniProt P21554); experiment: SAR analysis of antagonists of the Cannabinoid Receptor 1 using an Image-Based Assay - Set 4. [Related pubchem assays (depositor defined):AID2013, AID2026]; format: functional
[2] = molecular target: T2, G-protein coupled receptor 35 (Homo sapiens, UniProt Q9HC97); experiment: SAR analysis of Agonists of the GPR35 Receptor using an Image-Based Assay - Set 4. [Related pubchem assays (depositor defined):AID2013, AID2026]; format: functional
Cannabinoid receptor 2 [3] = molecular target: T3, Cannabinoid receptor 2 (Homo sapiens, UniProt P34972); experiment: SAR analysis of agonists of the Cannabinoid Receptor 2 using an Image-Based Assay - Set 3. [Related pubchem assays (depositor defined):AID2013, AID2026]; format: functional
[4] = molecular target: T4, G-protein coupled receptor 55 (Homo sapiens, UniProt Q9Y2T6); experiment: SAR Analysis of Selective Antagonists of GPR55 using an Image-Based Assay - Set 4. [Related pubchem assays (depositor defined):AID2013, AID2026]; format: functional
Cannabinoid receptor 1 [5] = molecular target: T1, Cannabinoid receptor 1; experiment: SAR analysis of agonists of the Cannabinoid Receptor 1 using an Image-Based Assay - Set 4. [Related pubchem assays (depositor defined):AID2013, AID2026]; format: functional
[6] = molecular target: T2, G-protein coupled receptor 35; experiment: SAR analysis of Antagonists of the GPR35 Receptor using an Image-Based Assay - Set 6. [Related pubchem assays (depositor defined):AID2013, AID2026]; format: functional
Cannabinoid receptor 2 [7] = molecular target: T3, Cannabinoid receptor 2; experiment: SAR analysis of antagonists of the Cannabinoid Receptor 2 using an Image-Based Assay - Set 3. [Related pubchem assays (depositor defined):AID2013, AID2026]; format: functional
[8] = molecular target: T4, G-protein coupled receptor 55; experiment: GPR55 antagonists, SAR follow-up, counter-screen for GPR35 antagonist project, imaging, image-based (AID 2397); format: functional
[9] = molecular target: T5, Nucleotide-binding oligomerization domain-containing protein 1 (Homo sapiens, UniProt Q9Y239); experiment: SAR analysis of compounds that inhibit NOD1 - Set 3. [Related pubchem assays (depositor defined):AID1566, AID1575, AID1578, AID1849, AID1852, AID2333, AID2335, AID2466]; format: functional
T5 sequence (Q9Y239 whole entry): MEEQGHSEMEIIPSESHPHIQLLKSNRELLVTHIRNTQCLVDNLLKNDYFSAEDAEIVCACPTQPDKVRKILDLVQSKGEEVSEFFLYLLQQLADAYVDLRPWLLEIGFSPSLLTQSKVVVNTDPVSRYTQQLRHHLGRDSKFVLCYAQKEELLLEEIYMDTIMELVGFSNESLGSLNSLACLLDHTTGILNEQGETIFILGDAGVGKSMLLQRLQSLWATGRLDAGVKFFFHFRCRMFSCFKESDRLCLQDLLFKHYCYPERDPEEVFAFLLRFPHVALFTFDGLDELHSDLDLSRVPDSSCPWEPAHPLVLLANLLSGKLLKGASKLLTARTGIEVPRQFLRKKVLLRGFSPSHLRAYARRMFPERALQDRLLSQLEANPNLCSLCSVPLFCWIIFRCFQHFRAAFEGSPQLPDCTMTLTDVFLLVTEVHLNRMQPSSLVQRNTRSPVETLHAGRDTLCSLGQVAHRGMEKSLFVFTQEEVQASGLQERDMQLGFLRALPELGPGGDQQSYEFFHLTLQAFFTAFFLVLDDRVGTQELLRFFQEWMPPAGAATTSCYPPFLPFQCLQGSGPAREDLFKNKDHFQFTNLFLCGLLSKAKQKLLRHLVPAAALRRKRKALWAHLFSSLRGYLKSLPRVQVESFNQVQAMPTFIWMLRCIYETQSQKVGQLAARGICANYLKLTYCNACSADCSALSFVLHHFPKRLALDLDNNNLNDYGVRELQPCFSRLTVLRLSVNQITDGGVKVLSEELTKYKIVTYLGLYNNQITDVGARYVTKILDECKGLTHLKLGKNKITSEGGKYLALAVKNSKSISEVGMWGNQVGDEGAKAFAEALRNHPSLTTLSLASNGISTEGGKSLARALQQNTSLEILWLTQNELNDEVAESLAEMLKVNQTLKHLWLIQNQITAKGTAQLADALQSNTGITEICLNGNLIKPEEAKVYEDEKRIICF

[10] = Shn3 3'UTR reporter inhibitors, dose response, cell-based, Clone20 osteoblasts, firefly luciferase, cherry-picked (AID 624132); format: functional;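 note: firefly luciferase luminescence from reporter carrying the Shn3 3'UTR in osteoblasts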
[11] = HepG2 cell cytotoxicity, dose response, cytotoxicity control for Shn3 inhibitor project, CellTiter-Glo, cherry-picked (AID 624134); format: functional, cell-based
HEK293 [12] = experiment: SAR analysis of compounds that are cytotoxic to HEK293 - Set 2. [Related pubchem assays (depositor defined):AID1575, AID1578, AID1849, AID2001, AID2333, AID2334, AID2335, AID2337, AID2800]; format: functional, cell-based; settings: Homo sapiens
[13] = molecular target: T6, Nucleotide-binding oligomerization domain-containing protein 2 (Homo sapiens, UniProt Q9HC29); experiment: NOD2 signaling inhibitors, analog potency, SAR follow-up, cell-based, set 3 (AID 2799); format: functional
[14] = molecular target: T6, Nucleotide-binding oligomerization domain-containing protein 2; experiment: NOD2 inhibitors, SAR follow-up, set 2 (AID 2475); format: functional
Tumor necrosis factor = Tumor necrosis factor (Homo sapiens, UniProt P01375); experiment: TNFa-triggered NF-kB activation inhibitors, SAR follow-up, cell-based, set 3 (AID 2801); format: functional
Interleukin-8 [15] = molecular target: T7, Interleukin-8 (Homo sapiens, UniProt P10145); experiment: SAR analysis of Tumor necrosis factor alpha (TNF-alpha) induced IL-8 secretion in MCF-7/NOD1 cells - Set 2. [Related pubchem assays (depositor defined):AID1575, AID2250, AID2260]; format: functional, cell-based
T7 sequence (P10145 whole entry): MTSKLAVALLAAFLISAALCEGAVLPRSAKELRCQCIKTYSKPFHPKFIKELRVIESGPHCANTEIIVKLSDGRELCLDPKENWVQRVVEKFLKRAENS

HEK293 [16] = experiment: SAR analysis of compounds that are cytotoxic to HEK293 - Set 3. [Related pubchem assays (depositor defined):AID1575, AID1578, AID1848, AID1849, AID2001, AID2333, AID2334, AID2335, AID2337, AID2469]; format: functional, cell-based; settings: Homo sapiens
Interleukin-8 [17] = molecular target: T7, Interleukin-8; experiment: SAR analysis of GM-Tri-DAP induced IL-8 secretion in MCF-7/NOD1 cells - Set 2. [Related pubchem assays (depositor defined):AID1575, AID1578, AID2333]; format: functional, cell-based
[18] = molecular target: T5, Nucleotide-binding oligomerization domain-containing protein 1; experiment: SAR analysis of NF-kappaB dependent luciferase using DAP as an inducer - Set 2. [Related pubchem assays (depositor defined):AID1566, AID1575, AID1578, AID1579, AID1849, AID1852, AID2264]; format: functional
[19] = control 3'UTR Renilla luciferase suppression, dose response, counter-screen for Shn3 inhibitor project, cell-based, Clone20-Shn3RL, cherry-picked (AID 624133); format: functional
[20] = molecular target: T5, Nucleotide-binding oligomerization domain-containing protein 1; experiment: SAR analysis of compounds that inhibit NOD1 - Set 2. [Related pubchem assays (depositor defined):AID1566, AID1575, AID1578, AID1849, AID1852, AID2333, AID2335, AID2798]; format: functional

T3 sequence (P34972 whole entry): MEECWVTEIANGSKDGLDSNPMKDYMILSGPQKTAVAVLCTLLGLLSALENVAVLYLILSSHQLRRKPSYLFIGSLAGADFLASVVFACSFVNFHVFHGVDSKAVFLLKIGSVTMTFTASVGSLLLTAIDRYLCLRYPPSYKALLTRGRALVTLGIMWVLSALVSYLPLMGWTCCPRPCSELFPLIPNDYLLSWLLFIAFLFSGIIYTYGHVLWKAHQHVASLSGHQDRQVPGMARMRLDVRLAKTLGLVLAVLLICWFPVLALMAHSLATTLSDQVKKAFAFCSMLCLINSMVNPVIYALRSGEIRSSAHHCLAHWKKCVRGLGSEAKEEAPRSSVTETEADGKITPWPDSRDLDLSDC
T2 sequence (Q9HC97 whole entry): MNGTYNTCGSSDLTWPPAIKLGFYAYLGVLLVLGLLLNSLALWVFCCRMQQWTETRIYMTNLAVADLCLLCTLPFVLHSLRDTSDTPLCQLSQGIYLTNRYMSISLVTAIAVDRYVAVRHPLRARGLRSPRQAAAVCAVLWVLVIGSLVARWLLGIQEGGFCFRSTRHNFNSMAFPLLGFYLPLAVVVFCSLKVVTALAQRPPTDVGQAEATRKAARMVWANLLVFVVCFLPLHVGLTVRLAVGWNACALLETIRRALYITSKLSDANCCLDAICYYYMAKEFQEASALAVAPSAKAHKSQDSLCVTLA
T4 sequence (Q9Y2T6 whole entry): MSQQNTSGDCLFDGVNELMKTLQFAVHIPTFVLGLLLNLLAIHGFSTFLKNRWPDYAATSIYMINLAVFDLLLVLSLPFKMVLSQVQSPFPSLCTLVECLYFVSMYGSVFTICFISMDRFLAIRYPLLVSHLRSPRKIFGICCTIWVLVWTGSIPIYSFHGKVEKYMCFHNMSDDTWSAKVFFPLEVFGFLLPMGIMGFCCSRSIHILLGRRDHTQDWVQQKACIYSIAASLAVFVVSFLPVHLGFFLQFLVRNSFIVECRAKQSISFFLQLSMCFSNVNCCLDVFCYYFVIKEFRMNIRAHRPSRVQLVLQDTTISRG
T6 sequence (Q9HC29 whole entry, the tested form may be a part): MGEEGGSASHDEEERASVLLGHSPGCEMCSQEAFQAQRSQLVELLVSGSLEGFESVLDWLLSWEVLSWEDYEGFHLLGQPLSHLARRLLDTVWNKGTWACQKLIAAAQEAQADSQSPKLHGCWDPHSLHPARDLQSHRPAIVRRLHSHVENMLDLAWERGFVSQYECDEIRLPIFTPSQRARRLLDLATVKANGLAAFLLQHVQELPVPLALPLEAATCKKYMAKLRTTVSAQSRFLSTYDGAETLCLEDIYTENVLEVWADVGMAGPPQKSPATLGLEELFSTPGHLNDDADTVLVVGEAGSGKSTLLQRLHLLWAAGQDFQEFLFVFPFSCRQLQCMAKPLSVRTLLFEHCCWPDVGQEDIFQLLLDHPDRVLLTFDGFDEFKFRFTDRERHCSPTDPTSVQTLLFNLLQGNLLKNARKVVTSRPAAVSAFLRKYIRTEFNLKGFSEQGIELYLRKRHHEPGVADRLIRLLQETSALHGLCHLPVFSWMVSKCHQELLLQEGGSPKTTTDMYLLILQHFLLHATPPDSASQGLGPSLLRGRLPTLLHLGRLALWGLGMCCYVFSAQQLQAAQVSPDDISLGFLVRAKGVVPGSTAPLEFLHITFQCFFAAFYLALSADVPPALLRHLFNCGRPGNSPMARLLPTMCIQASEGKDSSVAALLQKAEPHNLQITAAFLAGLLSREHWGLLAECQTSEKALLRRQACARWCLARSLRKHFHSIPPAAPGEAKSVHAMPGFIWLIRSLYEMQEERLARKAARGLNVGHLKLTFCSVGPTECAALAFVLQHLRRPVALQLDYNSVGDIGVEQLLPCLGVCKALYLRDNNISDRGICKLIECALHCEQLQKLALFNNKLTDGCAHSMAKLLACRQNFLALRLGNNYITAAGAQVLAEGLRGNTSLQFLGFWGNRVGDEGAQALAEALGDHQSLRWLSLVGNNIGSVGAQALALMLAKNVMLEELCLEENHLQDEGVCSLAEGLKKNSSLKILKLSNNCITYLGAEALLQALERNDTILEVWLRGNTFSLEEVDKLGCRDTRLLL
T1 sequence (P21554 whole entry): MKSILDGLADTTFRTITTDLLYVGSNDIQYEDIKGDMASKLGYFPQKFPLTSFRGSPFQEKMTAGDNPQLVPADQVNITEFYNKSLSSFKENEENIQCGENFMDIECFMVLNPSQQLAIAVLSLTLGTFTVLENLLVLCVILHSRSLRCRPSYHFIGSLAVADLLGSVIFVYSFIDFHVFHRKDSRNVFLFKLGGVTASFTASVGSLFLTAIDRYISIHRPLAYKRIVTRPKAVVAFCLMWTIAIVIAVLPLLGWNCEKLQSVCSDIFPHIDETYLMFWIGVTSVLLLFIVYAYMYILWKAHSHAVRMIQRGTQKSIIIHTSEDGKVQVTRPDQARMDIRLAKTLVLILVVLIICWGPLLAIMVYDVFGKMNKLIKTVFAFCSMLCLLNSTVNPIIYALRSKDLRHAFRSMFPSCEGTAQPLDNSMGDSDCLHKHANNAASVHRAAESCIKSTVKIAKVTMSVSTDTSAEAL
Tumor necrosis factor, sequence (P01375 whole entry): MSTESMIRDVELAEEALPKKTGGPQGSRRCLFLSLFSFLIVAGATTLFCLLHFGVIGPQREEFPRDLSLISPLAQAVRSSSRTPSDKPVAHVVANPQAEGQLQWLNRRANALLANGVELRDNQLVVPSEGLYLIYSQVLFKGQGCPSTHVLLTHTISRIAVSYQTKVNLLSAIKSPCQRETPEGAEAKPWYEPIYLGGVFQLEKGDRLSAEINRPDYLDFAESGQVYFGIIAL

IC50 (Cannabinoid receptor 1 [1]): 4.92 µM (active)
EC50 [2]: > 32 µM (inactive)
EC50 (Cannabinoid receptor 2 [3]): > 32 µM (inactive)
IC50 [4]: 13.7 µM (inactive)
EC50 (Cannabinoid receptor 1 [5]): > 32 µM (inactive)
IC50 [6]: > 32 µM (inactive)
IC50 (Cannabinoid receptor 2 [7]): > 32 µM (inactive)
Compound: Cc1cc(C)nc(NS(=O)(=O)c2ccc(NC(=O)c3cc(-c4ccccc4)nc4ccccc34)cc2)n1

IC50 [8]: > 32 µM (inactive)
Compound: O=C(Nc1ccc2nc(SCc3ccc(Cl)c(Cl)c3)sc2c1)c1ccccc1Br

Compound: C/C(Cl)=C\Cn1c(NCCc2ccccc2)nc2c1c(=O)n(C)c(=O)n2C
IC50 [9]: 4.13 µM (active)
AC50 [10]: 0.283 µM (active)
AC50 [11]: 59.4 µM (active)
IC50 (HEK293 [12]): > 20 µM (inactive)
IC50 [13]: 3.05 µM (active)
IC50 [14]: 2.5 µM (active)
IC50 (Tumor necrosis factor): 5.66 µM (active)
IC50 (Interleukin-8 [15]): > 25 µM (inactive)
IC50 (HEK293 [16]): > 20 µM (inactive)
IC50 (Interleukin-8 [17]): > 25 µM (inactive)
IC50 [18]: > 25 µM (inactive)
AC50 [19]: 0.493 µM (active)
IC50 [20]: 2.61 µM (active)

From ChEMBL document CHEMBL1201862, “PubChem BioAssay data set” (2004)
